Consider one compound from ChEMBL document CHEMBL5120922, “Discovery, Optimization, and Evaluation of Potent and Selective PI3Kδ-γ Dual Inhibitors for the Treatment of B-cell Malignancies” (J Med Chem, 2022).

pIC50: −log10 of the molar value.

Data set [1] deals with DOHH-2. Kind of data set: Antiproliferative activity against human DOHH-2 cells assessed as cell growth inhibition measured after 72 hrs by MTT assay. It is filed as functional, cell-based. Conditions: DOHH-2, 72 h. On the technique in general: Formazan colour is commonly taken as a measure of viable cells.
The nature of data set [2]: Cmax in Sprague-Dawley rat at 5 mg/kg, iv measured upto 24 hrs by LC-MS/MS analysis. The class given is ADME, organism-based. Details: time < 24 hrs, dose 5 mg/kg, route iv. Conditions: in vivo.
Data set [3] can be described thus: AUC(0 to t) in Sprague-Dawley rat at 2 mg/kg, iv measured upto 24 hrs by LC-MS/MS analysis. It is filed as ADME, organism-based. More on the design: time < 24 hrs, dose 2 mg/kg, route iv. Particulars: in vivo.
Data set [4] is described as follows: Half life in Sprague-Dawley rat at 10 mg/kg, po measured upto 24 hrs by LC-MS/MS analysis. The class given is ADME, organism-based. Conditions: in vivo.
The test system of data set [5] is SU-DHL-6. The data set is described as follows: Induction of cell cycle arrest in human SU-DHL-6 cells assessed as accumulation of cells at G2/M phase at 0.5 uM incubated for 24 hrs by PI staining based FACScan flow cytometry analysis (reference value: 20.21 %). It is filed as functional. On the technique in general: A flow cytometer gives signals particle by particle.

Data set [6] has as its system DOHH-2. Kind of data set: Induction of cell cycle arrest in human DOHH-2 cells assessed as accumulation of cells at G0/G1 phase at 0.5 uM incubated for 24 hrs by PI staining based flow cytometry analysis (reference value: 23.47 %). The class given is functional.
The subject of data set [7] is DOHH-2. The data set is described as follows: Induction of cell cycle arrest in human DOHH-2 cells assessed as accumulation of cells at S phase at 0.5 uM incubated for 24 hrs by PI staining based FACScan flow cytometry analysis (reference value: 55.11 %). The class given is functional.
Data set [8] deals with SU-DHL-6. The data set is described as follows: Induction of apoptosis in human SU-DHL-6 cells assessed as necrotic cells at 1.5 uM incubated for 48 hrs in presence of ibrutinib by annexin V-FITC and PI staining based flow cytometry analysis (reference value: 0.32%). It is filed as functional.
The subject of data set [9] is DOHH-2. Kind of data set: Induction of apoptosis in human DOHH-2 cells assessed as late apoptotic cells at 2 uM incubated for 48 hrs by annexin V-FITC and PI staining based flow cytometry analysis (reference value: 2.20 %). It is filed as functional.
Data set [10] relates to SU-DHL-6. Kind of data set: Antitumor activity against human SU-DHL-6 cells xenografted in NOD/SCID mouse assessed as tumor growth inhibition at 10 mg/kg, po measured every 2 days in presence of ibrutinib. Conditions: SU-DHL-6, 48 h, time 2 day, read-out: TGI. It is filed as functional. In general terms: A xenograft is tissue or cells of one species grown in another, often human tumour cells in immunodeficient mice.

For `C[C@H]1CC[C@@H](c2nc3cccc(Cl)c3c(=O)n2-c2cccnc2)N1c1nc(N)nc(N)c1C#N`, the pIC50 in data set [1] is 6.70. For the same compound, the Cmax in data set [2] was 860 ng/mL. In data set [3], this compound gave an AUC(0-t) at 24 h of 1150 ng·h/mL. Also, in data set [4], the half-life was 2.4 h. For the same compound, the Activity is listed as 10.01% in data set [5]; 36.44% in [6]; 43.53% in data set [7]; 0.25% in data set [8]; 17.6% in data set [9]. The inhibition in vivo at 10 mg/kg in data set [10] was at most 81.4%.

The term pIC50 denotes −log10 of the IC50, conventionally taken in molar units. In general, Cmax refers to the highest concentration seen after dosing. The AUC(0-t) is exposure summed from dosing to a finite time, without extrapolation to infinity. The low end stands for less exposure, the high end for more exposure. The half-life is how long it takes for the measured level to halve.
